Assay results: US10168342B2, “Lipid probes and uses thereof” (THE SCRIPPS RESEARCH INSTITUTE, priority 2015, dated 2019)

How the values were obtained:
[1] = target: T1, lipid-binding proteins in Neuro2a cells (Mus musculus, UniProt O08579); experiment: SILAC MS mapping of lipid probe targets (probe-versus-No UV, probe-versus-probe) in Neuro2a cells; format: cell-based; details: AEA-DA probe vs NoUV
T1 construct: endogenous in cells; host or cells: Neuro2a

[2] = target: T2, lipid-binding proteins in Neuro2a cells (Mus musculus, UniProt O70252); experiment: as above; format: cell-based; details: AEA-DA probe vs NoUV
T2 construct: endogenous in cells; host or cells: Neuro2a

[3] = target: T3, lipid-binding proteins in Neuro2a cells (Mus musculus, UniProt O70503); experiment: as above; format: cell-based; details: AEA-DA probe vs NoUV
T3 construct: endogenous in cells; host or cells: Neuro2a

[4] = target: T4, lipid-binding proteins in Neuro2a cells (Mus musculus, UniProt P21619); experiment: as above; format: cell-based; details: protein Lmnb2, AEA-DA probe, No UV control
T4 construct: endogenous in cells; host or cells: Neuro2a

[5] = target: T5, lipid-binding proteins in Neuro2a cells (Mus musculus, UniProt P45878); experiment: as above; format: cell-based; details: protein Fkbp2, AEA-DA probe, No UV control
T5 construct: endogenous in cells; host or cells: Neuro2a

[6] = target: T6, lipid-binding proteins in Neuro2a cells (Mus musculus, UniProt P52019); experiment: as above; format: cell-based; details: AEA-DA probe vs NoUV
T6 construct: endogenous in cells; host or cells: Neuro2a

[7] = target: T7, lipid-binding proteins in Neuro2a cells (Mus musculus, UniProt P97300); experiment: as above; format: cell-based; details: AEA-DA probe vs NoUV
T7 construct: endogenous in cells; host or cells: Neuro2a

[8] = target: T8, lipid-binding proteins in Neuro2a cells (Mus musculus, UniProt Q3UV70); experiment: as above; format: cell-based; details: protein Pdp1, AEA-DA probe, No UV control
T8 construct: endogenous in cells; host or cells: Neuro2a
T8 sequence (Q3UV70 72-538): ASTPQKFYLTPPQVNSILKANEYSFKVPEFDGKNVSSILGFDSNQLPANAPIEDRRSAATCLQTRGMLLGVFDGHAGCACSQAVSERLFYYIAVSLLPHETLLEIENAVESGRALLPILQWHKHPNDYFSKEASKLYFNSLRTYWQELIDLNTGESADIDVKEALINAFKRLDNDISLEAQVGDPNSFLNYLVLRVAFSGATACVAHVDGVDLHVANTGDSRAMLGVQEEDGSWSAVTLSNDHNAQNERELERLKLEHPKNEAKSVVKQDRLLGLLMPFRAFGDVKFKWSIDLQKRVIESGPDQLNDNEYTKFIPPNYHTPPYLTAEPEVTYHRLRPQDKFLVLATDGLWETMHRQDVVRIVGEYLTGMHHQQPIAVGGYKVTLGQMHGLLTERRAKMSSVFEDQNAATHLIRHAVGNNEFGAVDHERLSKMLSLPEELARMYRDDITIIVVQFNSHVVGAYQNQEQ

[9] = target: T9, lipid-binding proteins in Neuro2a cells (Mus musculus, UniProt Q60932); experiment: as above; format: cell-based; details: AEA-DA probe vs NoUV
T9 construct: endogenous in cells; host or cells: Neuro2a
T9 sequence (Q60932 whole entry): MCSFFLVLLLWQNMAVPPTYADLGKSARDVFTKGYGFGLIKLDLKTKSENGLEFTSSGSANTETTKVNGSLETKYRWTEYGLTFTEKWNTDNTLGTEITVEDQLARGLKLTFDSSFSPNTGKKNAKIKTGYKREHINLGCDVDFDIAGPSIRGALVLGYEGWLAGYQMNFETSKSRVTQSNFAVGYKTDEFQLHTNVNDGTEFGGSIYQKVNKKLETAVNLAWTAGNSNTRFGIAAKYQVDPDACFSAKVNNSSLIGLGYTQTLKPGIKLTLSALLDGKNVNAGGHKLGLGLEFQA

[10] = target: T10, lipid-binding proteins in Neuro2a cells (Mus musculus, UniProt Q61207); experiment: as above; format: cell-based; details: AEA-DA probe vs NoUV
T10 construct: endogenous in cells; host or cells: Neuro2a
T10 sequence (Q61207 60-557): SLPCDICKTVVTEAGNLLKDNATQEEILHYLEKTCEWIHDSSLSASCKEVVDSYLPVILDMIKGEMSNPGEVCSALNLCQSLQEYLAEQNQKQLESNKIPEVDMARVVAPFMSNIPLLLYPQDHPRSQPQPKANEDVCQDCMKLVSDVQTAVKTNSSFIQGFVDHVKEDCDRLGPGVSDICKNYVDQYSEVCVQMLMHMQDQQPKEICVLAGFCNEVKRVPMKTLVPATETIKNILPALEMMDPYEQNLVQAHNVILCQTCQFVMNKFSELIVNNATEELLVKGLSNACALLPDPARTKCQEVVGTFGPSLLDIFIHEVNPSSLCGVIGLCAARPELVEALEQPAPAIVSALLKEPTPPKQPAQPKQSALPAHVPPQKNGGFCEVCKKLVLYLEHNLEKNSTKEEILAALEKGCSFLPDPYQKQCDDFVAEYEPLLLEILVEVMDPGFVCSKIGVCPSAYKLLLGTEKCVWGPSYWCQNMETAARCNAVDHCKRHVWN

[11] = target: T11, lipid-binding proteins in Neuro2a cells (Mus musculus, UniProt Q61712); experiment: as above; format: cell-based; details: AEA-DA probe vs NoUV
T11 construct: endogenous in cells; host or cells: Neuro2a
T11 sequence (Q61712 44-552): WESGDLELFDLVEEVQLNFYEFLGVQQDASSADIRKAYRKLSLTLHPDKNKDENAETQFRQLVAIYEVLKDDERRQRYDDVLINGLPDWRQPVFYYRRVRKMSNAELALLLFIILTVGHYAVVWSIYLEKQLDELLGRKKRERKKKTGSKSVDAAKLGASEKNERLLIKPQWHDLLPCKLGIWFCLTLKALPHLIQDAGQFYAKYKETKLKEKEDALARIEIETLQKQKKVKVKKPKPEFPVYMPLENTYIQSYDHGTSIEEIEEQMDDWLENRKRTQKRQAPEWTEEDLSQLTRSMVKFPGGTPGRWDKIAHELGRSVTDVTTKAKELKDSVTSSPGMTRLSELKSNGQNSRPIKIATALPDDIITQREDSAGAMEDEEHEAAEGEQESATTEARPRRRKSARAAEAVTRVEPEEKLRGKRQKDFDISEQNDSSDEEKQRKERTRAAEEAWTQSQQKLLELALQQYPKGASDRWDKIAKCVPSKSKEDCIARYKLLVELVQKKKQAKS

[12] = target: T12, lipid-binding proteins in Neuro2a cells (Mus musculus, UniProt Q62465); experiment: as above; format: cell-based; details: AEA-DA probe vs NoUV
T12 construct: endogenous in cells; host or cells: Neuro2a
T12 sequence (Q62465 whole entry): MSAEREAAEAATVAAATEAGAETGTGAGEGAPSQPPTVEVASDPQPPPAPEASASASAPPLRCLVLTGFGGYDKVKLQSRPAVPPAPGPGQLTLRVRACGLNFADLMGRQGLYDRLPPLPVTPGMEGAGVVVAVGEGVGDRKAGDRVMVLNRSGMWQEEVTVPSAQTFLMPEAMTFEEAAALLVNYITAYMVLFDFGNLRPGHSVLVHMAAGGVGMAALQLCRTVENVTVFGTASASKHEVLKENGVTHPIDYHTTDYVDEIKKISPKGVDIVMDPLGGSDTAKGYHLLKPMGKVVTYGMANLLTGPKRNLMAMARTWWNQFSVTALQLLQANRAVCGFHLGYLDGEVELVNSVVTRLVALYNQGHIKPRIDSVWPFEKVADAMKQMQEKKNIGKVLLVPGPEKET

[13] = target: T13, lipid-binding proteins in Neuro2a cells (Mus musculus, UniProt Q78IK4); experiment: as above; format: cell-based; details: protein Apool, AEA-DA probe, No UV control
T13 construct: endogenous in cells; host or cells: Neuro2a

[14] = target: T14, lipid-binding proteins in Neuro2a cells (Mus musculus, UniProt Q80UU9); experiment: as above; format: cell-based; details: AEA-DA probe vs NoUV
T14 construct: endogenous in cells; host or cells: Neuro2a
T14 sequence (Q80UU9 whole entry): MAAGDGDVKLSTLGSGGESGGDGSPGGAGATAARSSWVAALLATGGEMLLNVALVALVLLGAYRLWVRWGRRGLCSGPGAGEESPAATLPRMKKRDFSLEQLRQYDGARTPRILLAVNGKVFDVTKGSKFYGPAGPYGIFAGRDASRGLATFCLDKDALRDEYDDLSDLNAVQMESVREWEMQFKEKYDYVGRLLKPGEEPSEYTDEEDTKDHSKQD

[15] = target: T15, lipid-binding proteins in Neuro2a cells (Mus musculus, UniProt Q8BHC4); experiment: as above; format: cell-based; details: AEA-DA probe vs NoUV
T15 construct: endogenous in cells; host or cells: Neuro2a

[16] = target: T16, lipid-binding proteins in Neuro2a cells (Mus musculus, UniProt Q8BVU5); experiment: as above; format: cell-based; details: protein Nudt9, AEA-DA probe, No UV control
T16 construct: endogenous in cells; host or cells: Neuro2a

[17] = target: T17, lipid-binding proteins in Neuro2a cells (Mus musculus, UniProt Q8R0X7); experiment: as above; format: cell-based; details: AEA-DA probe vs NoUV
T17 construct: endogenous in cells; host or cells: Neuro2a

[18] = target: T18, lipid-binding proteins in Neuro2a cells (Mus musculus, UniProt Q8R2Y0); experiment: as above; format: cell-based; details: AEA-DA probe vs NoUV
T18 construct: endogenous in cells; host or cells: Neuro2a
T18 sequence (Q8R2Y0 whole entry): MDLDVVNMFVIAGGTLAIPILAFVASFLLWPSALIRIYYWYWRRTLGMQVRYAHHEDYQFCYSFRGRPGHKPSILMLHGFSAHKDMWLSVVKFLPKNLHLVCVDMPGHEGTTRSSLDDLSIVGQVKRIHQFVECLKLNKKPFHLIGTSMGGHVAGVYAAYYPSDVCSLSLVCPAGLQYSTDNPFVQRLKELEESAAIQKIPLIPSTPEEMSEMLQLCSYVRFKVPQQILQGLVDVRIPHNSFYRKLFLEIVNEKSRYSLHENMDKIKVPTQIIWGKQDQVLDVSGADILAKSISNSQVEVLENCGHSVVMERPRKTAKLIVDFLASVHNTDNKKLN

[19] = target: T19, lipid-binding proteins in Neuro2a cells (Mus musculus, UniProt Q8VCX5); experiment: as above; format: cell-based; details: protein Micu1, AEA-DA probe, No UV control
T19 construct: endogenous in cells; host or cells: Neuro2a
T19 sequence (Q8VCX5 34-477): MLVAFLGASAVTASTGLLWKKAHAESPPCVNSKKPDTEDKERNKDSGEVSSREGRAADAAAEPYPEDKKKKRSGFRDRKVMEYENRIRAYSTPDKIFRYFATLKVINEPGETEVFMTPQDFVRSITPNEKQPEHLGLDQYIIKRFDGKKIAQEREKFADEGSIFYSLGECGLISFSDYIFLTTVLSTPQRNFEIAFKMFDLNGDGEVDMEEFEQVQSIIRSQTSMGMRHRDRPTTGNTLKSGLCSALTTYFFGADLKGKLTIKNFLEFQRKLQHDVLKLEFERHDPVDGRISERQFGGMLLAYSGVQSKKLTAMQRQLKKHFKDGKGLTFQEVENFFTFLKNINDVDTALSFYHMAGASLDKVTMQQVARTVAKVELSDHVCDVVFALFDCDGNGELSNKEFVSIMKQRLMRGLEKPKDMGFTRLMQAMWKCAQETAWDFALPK

[20] = target: T20, lipid-binding proteins in Neuro2a cells (Mus musculus, UniProt Q91V01); experiment: as above; format: cell-based; details: AEA-DA probe vs NoUV
T20 construct: endogenous in cells; host or cells: Neuro2a

[21] = target: T21, lipid-binding proteins in Neuro2a cells (Mus musculus, UniProt Q924D0); experiment: as above; format: cell-based; details: protein Rtn4ip1, AEA-DA probe, No UV control
T21 construct: endogenous in cells; host or cells: Neuro2a
T21 sequence (Q924D0 41-396): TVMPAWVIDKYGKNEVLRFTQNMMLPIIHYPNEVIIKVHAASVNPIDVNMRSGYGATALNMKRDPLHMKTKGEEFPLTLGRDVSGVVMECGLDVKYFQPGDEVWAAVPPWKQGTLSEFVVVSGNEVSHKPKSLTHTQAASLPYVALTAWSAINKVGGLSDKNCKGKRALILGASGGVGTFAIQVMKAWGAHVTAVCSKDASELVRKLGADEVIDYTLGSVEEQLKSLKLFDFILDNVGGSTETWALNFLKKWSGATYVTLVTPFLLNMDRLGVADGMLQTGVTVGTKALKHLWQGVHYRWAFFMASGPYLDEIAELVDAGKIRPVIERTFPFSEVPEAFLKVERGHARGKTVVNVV

[22] = target: T22, lipid-binding proteins in Neuro2a cells (Mus musculus, UniProt Q924Z4); experiment: as above; format: cell-based; details: AEA-DA probe vs NoUV
T22 construct: endogenous in cells; host or cells: Neuro2a
T22 sequence (Q924Z4 whole entry): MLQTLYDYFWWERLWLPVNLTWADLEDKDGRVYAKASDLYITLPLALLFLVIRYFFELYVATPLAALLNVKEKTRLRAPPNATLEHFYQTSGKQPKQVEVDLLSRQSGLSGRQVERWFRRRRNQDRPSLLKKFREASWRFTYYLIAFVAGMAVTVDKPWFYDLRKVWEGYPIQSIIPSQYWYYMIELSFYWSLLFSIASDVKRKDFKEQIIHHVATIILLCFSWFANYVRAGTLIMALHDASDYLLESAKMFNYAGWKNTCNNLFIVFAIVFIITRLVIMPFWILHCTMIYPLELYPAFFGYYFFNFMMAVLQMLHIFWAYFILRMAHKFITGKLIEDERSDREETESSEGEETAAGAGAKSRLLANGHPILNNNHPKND

[23] = target: T23, lipid-binding proteins in Neuro2a cells (Mus musculus, UniProt Q99JY4); experiment: as above; format: cell-based; details: AEA-DA probe vs NoUV
T23 construct: endogenous in cells; host or cells: Neuro2a

[24] = target: T24, lipid-binding proteins in Neuro2a cells (Mus musculus, UniProt Q99KJ8); experiment: as above; format: cell-based; details: protein Dctn2, AEA-DA probe, No UV control
T24 construct: endogenous in cells; host or cells: Neuro2a
T24 sequence (Q99KJ8 whole entry): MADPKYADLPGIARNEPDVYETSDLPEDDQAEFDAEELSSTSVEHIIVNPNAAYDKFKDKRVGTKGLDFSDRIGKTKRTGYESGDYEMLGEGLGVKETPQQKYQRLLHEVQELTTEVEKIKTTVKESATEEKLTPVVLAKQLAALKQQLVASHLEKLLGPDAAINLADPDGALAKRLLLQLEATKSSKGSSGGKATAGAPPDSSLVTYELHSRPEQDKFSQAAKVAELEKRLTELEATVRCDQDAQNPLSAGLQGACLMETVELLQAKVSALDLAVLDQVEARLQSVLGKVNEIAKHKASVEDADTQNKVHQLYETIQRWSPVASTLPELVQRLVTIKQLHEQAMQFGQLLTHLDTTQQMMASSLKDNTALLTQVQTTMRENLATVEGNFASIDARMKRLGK

[25] = target: T25, lipid-binding proteins in Neuro2a cells (Mus musculus, UniProt Q9CPQ3); experiment: as above; format: cell-based; details: AEA-DA probe vs NoUV
T25 construct: endogenous in cells; host or cells: Neuro2a
T25 sequence (Q9CPQ3 whole entry): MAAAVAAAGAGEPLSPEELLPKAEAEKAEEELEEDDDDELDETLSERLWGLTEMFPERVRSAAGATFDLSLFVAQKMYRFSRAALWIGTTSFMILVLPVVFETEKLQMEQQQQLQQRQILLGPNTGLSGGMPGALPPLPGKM

[26] = target: T26, lipid-binding proteins in Neuro2a cells (Mus musculus, UniProt Q9CQ85); experiment: as above; format: cell-based; details: AEA-DA probe vs NoUV
T26 construct: endogenous in cells; host or cells: Neuro2a
T26 sequence (Q9CQ85 whole entry): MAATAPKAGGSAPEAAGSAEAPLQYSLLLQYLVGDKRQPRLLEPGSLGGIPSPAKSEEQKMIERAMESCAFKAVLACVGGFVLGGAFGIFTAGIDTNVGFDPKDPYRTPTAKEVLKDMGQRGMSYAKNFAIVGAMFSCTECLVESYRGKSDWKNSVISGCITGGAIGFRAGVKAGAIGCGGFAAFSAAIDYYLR

[27] = target: T27, lipid-binding proteins in Neuro2a cells (Mus musculus, UniProt Q9R0P6); experiment: as above; format: cell-based; details: AEA-DA probe vs NoUV
T27 construct: endogenous in cells; host or cells: Neuro2a

[28] = target: T28, lipid-binding proteins in Neuro2a cells (Mus musculus, UniProt Q9Z0R9); experiment: as above; format: cell-based; details: AEA-DA probe vs NoUV
T28 construct: endogenous in cells; host or cells: Neuro2a

[29] = system: lipid-binding proteins in Neuro2a cells; experiment: as above; format: cell-based, mouse; details: AEA-DA probe vs NoUV
recombinant TMEM97 = target: T29, recombinant TMEM97 (Homo sapiens, UniProt Q5BJF2); experiment: In situ gel-based competition of arachidonoyl probe labeling of recombinant TMEM97 in HEK293T cells; format: cell-based; details: TMEM97-transfected HEK293T cells, probe 5 μM, competitor 25 μM
T29 construct: Full-length cDNAs encoding for the each protein of interest were subcloned into pcDNA3.1 myc-His A; expressed in transfected cells; host or cells: HEK293T
T29 sequence (Q5BJF2 whole entry, species assumed): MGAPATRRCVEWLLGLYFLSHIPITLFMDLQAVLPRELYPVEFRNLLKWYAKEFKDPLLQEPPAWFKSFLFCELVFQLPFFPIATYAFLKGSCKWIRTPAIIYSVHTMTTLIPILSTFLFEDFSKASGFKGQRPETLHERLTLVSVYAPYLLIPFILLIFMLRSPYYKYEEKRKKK
Method: Proteomes were diluted to 1.0 mg/mL (total protein concentration) and 50 μL of each proteome was transferred to separate wells in a 96-well plate.
Full-length cDNAs encoding for the each protein of interest were subcloned into pcDNA3.1 myc-His A (Invitrogen) or used directly for transfections if available in a eukaryotic expression vector. HEK293T cells were grown to ˜70% confluence under standard growth conditions before adding the appropriate cDNA [control cells (“mock”) received an equal amount of empty pcDNA3.1 myc-His A vector] and FuGENE 6 or X-tremeGENE HP (Roche) transfection reagent according to the manufacturer's instructions. Cells were incubated for 36-48 hours before labeling in situ or harvesting for in vitro experiments.

## C#CCCCC1(CC/C=C\C/C=C\C/C=C\CCCC(=O)NCCO)N=N1 [AEA-DA, (5Z,8Z,11Z)-N-(2-hydroxyethyl)-14-(3-(pent-4-yn-1-yl)-3H-diazirin-3-yl)tetradeca-5,8,11-trienamide]
[1]
  SILAC ratio, EMD (O08579): 20.0
[2]
  SILAC ratio, HMOX2 (P30519): 4.0
[3]
  SILAC ratio, HSD17B12 (Q53GQ0): 15.3
[4]
  SILAC ratio, AEA-DA probe versus No UV: 20.0
[5]
  SILAC ratio, AEA-DA probe versus No UV: 5.6
[6]
  SILAC ratio, SQLE (Q14534): 5.0
[7]
  SILAC ratio, NPTN (Q9Y639): 17.4
[8]
  SILAC ratio, AEA-DA probe versus No UV: 20.0
[9]
  SILAC ratio, VDAC1 (P21796): 20.0
[10]
  SILAC ratio, PSAP (P07602): 20.0
[11]
  SILAC ratio, DNAJC1 (Q96KC8): 20.0
[12]
  SILAC ratio, VAT1 (Q99536): 4.4
[13]
  SILAC ratio, AEA-DA probe versus No UV: 6.4
[14]
  SILAC ratio, PGRMC2 (Q80UU9): 16.3
[15]
  SILAC ratio, DCAKD (Q8BHC4): 9.0
[16]
  SILAC ratio, AEA-DA probe versus No UV: 20.0
[17]
  SILAC ratio, SGPL1 (O95470): 20.0
[18]
  SILAC ratio, ABHD6 (Q8R2Y0): 20.0
[19]
  SILAC ratio, AEA-DA probe versus No UV: 20.0
[20]
  SILAC ratio, LPCAT3 (Q6P1A2): 18.7
[21]
  SILAC ratio, AEA-DA probe versus No UV: 15.1
[22]
  SILAC ratio, CERS2 (Q924Z4): 17.1
[23]
  SILAC ratio, TRABD (Q99JY4): 12.0
[24]
  SILAC ratio, AEA-DA probe versus No UV: 11.6
[25]
  SILAC ratio, TOMM22 (Q9CPQ3): 20.0
[26]
  SILAC ratio, TIMM22 (Q9CQ85): 13.6
[27]
  SILAC ratio, SEC11A (P67812): 5.4
[28]
  SILAC ratio, FADS2 (Q9Z0R9): 10.5
[29]
  SILAC ratio, GM20425 (E9Q035): 16.5

## C=CCN(C)CCCCCCOc1ccc(C(=O)c2ccc(Br)cc2)c(F)c1 [Ro 48-8071, reference compound]
Recombinant TMEM97
  competition of arachidonoyl probe labeling of recombinant TMEM97: competition was observed
